In ChEMBL document CHEMBL4024732, “Discovery of a novel and potent class of anti-HIV-1 maturation inhibitors with improved virology profile against gag polymorphisms” (Bioorg Med Chem Lett, 2017):
Blank lines part the entries; values can stand above or below the molecule they belong to. The source made the active and inactive calls. The rule behind the calls is not given here.

Assays:
[1] = Inhibition of wild type HIV-1 clade B NL4-3 Gag polyprotein SP1 infected in human MT4 cells; format: cell-based; conditions: Human immunodeficiency virus 1, clade B NL4-3, MT4
[2] = Inhibition of bevirimat-resistant HIV1 clade B NL4-3 CA-SP1 V370A mutant infected in human MT4 cells; format: cell-based; conditions: Human immunodeficiency virus 1, clade B NL4-3, MT4
[3] = Inhibition of bevirimat-resistant HIV1 clade B NL4-3 CA-SP1 T371A mutant infected in human MT4 cells; format: cell-based; conditions: Human immunodeficiency virus 1, clade B NL4-3, MT4
[4] = Inhibition of bevirimat-resistant HIV1 clade B NL4-3 CA-SP1 Q369H mutant infected in human MT4 cells; format: cell-based; conditions: Human immunodeficiency virus 1, clade B NL4-3, MT4
[5] = test system: Human immunodeficiency virus 1; assay: Inhibition of HIV1 Gag CA-SP1 cleavage infected in human PBMC at 0.0001 to 10 uM measured after 8 days post infection by Western blot analysis
[6] = test system: Human immunodeficiency virus 1; assay: Antiviral activity against HIV1 isolate 96USNG031 infected in human PBMC; format: functional; conditions: Human immunodeficiency virus 1, isolate 96USNG031
[7] = Inhibition of bevirimat-resistant HIV-1 clade B isolate CC1/85 CA-SP1 V370A mutant infected in human PBMC measured after 7 days by scintillation counting method; conditions: Human immunodeficiency virus 1, clade B isolate CC1/85, 168 h
[8] = test system: Human immunodeficiency virus 1; assay: Antiviral activity against HIV1 isolate 00KEKR1008 infected in human PBMC; format: functional; conditions: Human immunodeficiency virus 1, isolate 00KEKR1008
[9] = test system: Human immunodeficiency virus 1; assay: Antiviral activity against HIV1 isolate 01ET188 infected in human PBMC; format: functional; conditions: Human immunodeficiency virus 1, isolate 01ET188
[10] = Inhibition of bevirimat-resistant HIV-1 clade B isolate ASJM108 Gag V370A mutant infected in human PBMC after 7 days by scintillation counting method; conditions: Human immunodeficiency virus 1, clade B isolate ASJM108, 168 h
[11] = test system: Human immunodeficiency virus 1; assay: Ratio of compound effect in presence of 40% human serum to compound effect in absence of serum for antiviral activity against HIV1 by cell based assay; format: functional
[12] = Cytotoxicity against human MT4 cells; format: cell-based
[13] = test system: Human immunodeficiency virus 1; assay: Antiviral activity against HIV1 isolate 96THNP1538 infected in human PBMC; format: functional; conditions: Human immunodeficiency virus 1, isolate 96THNP1538
[14] = test system: Human immunodeficiency virus 1; assay: Antiviral activity against HIV1 isolate 91BR014 infected in human PBMC; format: functional; conditions: Human immunodeficiency virus 1, isolate 91BR014
[15] = Inhibition of bevirimat-resistant HIV-1 clade A isolate I-2496 V370A mutant infected in human PBMC after 7 days by scintillation counting method; conditions: Human immunodeficiency virus 1, clade A isolate I-2496, 168 h
[16] = test system: Human immunodeficiency virus 1; assay: Inhibition of HIV1 Gag CA-SP1 cleavage infected in human PBMC at 10 uM measured after 8 days post infection by Western blot analysis

SMILES: CC(C)C1=C2[C@H]3CC[C@@H]4[C@@]5(C)CC[C@H](OC(=O)CC(C)(C)C(=O)O)C(C)(C)[C@@H]5CC[C@@]4(C)[C@]3(C)CC[C@@]2(C(=O)C(=O)NCc2ccncc2)CC1=O
IC50 [1]: 6200 nM
IC50 [2]: > 10000 nM

SMILES: CC(C)C1=C2[C@H]3CC[C@@H]4[C@@]5(C)CC[C@H](OC(=O)CC(C)(C)C(=O)O)C(C)(C)[C@@H]5CC[C@@]4(C)[C@]3(C)CC[C@@]2(C(=O)C(=O)NCC2CCCCC2)CC1=O
IC50 [1]: 11 nM
IC50 [2]: 27 nM

SMILES: CC(C)C1=C2[C@H]3CC[C@@H]4[C@@]5(C)CC[C@H](OC(=O)CC(C)(C)C(=O)O)C(C)(C)[C@@H]5CC[C@@]4(C)[C@]3(C)CC[C@@]2(C(=O)C(=O)NCc2cccc(Cl)c2)CC1=O
IC50 [1]: 16 nM
IC50 [2]: 370 nM

SMILES: CC(C)C1=C2[C@H]3CC[C@@H]4[C@@]5(C)CC[C@H](OC(=O)CC(C)(C)C(=O)O)C(C)(C)[C@@H]5CC[C@@]4(C)[C@]3(C)CC[C@@]2(C(=O)C(=O)NC(C)(C)c2ccc(Cl)cc2)CC1=O
IC50 [3]: 11 nM
IC50 [1]: 19 nM
IC50 [2]: 17 nM
IC50 [4]: 17 nM

SMILES: CC(C)C1=C2[C@H]3CC[C@@H]4[C@@]5(C)CC[C@H](OC(=O)CC(C)(C)C(=O)O)C(C)(C)[C@@H]5CC[C@@]4(C)[C@]3(C)CC[C@@]2(C(=O)C(=O)NC2(c3ccc(Cl)cc3)CCC2)CC1=O
IC50 [3]: 17 nM
IC50 [1]: 29 nM
IC50 [2]: 65 nM
IC50 [4]: 48 nM

SMILES: CC(C)C1=C2[C@H]3CC[C@@H]4[C@@]5(C)CC[C@H](OC(=O)CC(C)(C)C(=O)O)C(C)(C)[C@@H]5CC[C@@]4(C)[C@]3(C)CC[C@@]2(C(=O)C(=O)N[C@H](C)c2ccc(Cl)cc2)CC1=O
IC50 [3]: 5 nM
IC50 [1]: 18 nM
IC50 [2]: 25 nM
IC50 [4]: 25 nM

SMILES: CC[C@H](NC(=O)C(=O)[C@@]12CC[C@]3(C)[C@H](CC[C@@H]4[C@@]5(C)CC[C@H](OC(=O)CC(C)(C)C(=O)O)C(C)(C)[C@@H]5CC[C@]43C)C1=C(C(C)C)C(=O)C2)c1ccc(Cl)cc1
IC50 [3]: 26 nM
IC50 [1]: 54 nM
IC50 [2]: 372 nM
IC50 [4]: 62 nM

SMILES: CC(C)C1=C2[C@H]3CC[C@@H]4[C@@]5(C)CC[C@H](OC(=O)CC(C)(C)C(=O)O)C(C)(C)[C@@H]5CC[C@@]4(C)[C@]3(C)CC[C@@]2(C(=O)C(=O)NCCN2CCCC2)CC1=O
IC50 [1]: 1000 nM
IC50 [2]: > 10000 nM

SMILES: CC(C)C1=C2[C@H]3CC[C@@H]4[C@@]5(C)CC[C@H](OC(=O)CC(C)(C)C(=O)O)C(C)(C)[C@@H]5CC[C@@]4(C)[C@]3(C)CC[C@@]2(C(=O)C(=O)Nc2ccc(F)cc2)CC1=O
IC50 [1]: 130 nM
IC50 [2]: 1800 nM

SMILES: CC(C)C1=C2[C@H]3CC[C@@H]4[C@@]5(C)CC[C@H](OC(=O)CC(C)(C)C(=O)O)C(C)(C)[C@@H]5CC[C@@]4(C)[C@]3(C)CC[C@@]2(C(=O)C(=O)NCc2ccc(Cl)cc2Cl)CC1=O
IC50 [1]: 37 nM
IC50 [2]: 193 nM

SMILES: CC(C)C1=C2[C@H]3CC[C@@H]4[C@@]5(C)CC[C@H](OC(=O)CC(C)(C)C(=O)O)C(C)(C)[C@@H]5CC[C@@]4(C)[C@]3(C)CC[C@@]2(C(=O)C(=O)NC2(c3ccc(Cl)cc3)CCCC2)CC1=O
IC50 [3]: 33 nM
IC50 [1]: 66 nM
IC50 [2]: 110 nM
IC50 [4]: 100 nM

SMILES: COc1ccc(CNC(=O)C(=O)[C@@]23CC[C@]4(C)[C@H](CC[C@@H]5[C@@]6(C)CC[C@H](OC(=O)CC(C)(C)C(=O)O)C(C)(C)[C@@H]6CC[C@]54C)C2=C(C(C)C)C(=O)C3)cc1
IC50 [1]: 99 nM
IC50 [2]: 8000 nM

SMILES: CC(C)C1=C2[C@H]3CC[C@@H]4[C@@]5(C)CC[C@H](OC(=O)CC(C)(C)C(=O)O)C(C)(C)[C@@H]5CC[C@@]4(C)[C@]3(C)CC[C@@]2(C(=O)C(=O)NCc2ccccc2Cl)CC1=O
IC50 [1]: 17 nM
IC50 [2]: 486 nM

SMILES: CC(C)C1=C2[C@H]3CC[C@@H]4[C@@]5(C)CC[C@H](OC(=O)CC(C)(C)C(=O)O)C(C)(C)[C@@H]5CC[C@@]4(C)[C@]3(C)CC[C@@]2(C(=O)C(=O)NCCCN2CCCC2)CC1=O
IC50 [1]: 1180 nM
IC50 [2]: 7500 nM

SMILES: CC(C)C1=C2[C@H]3CC[C@@H]4[C@@]5(C)CC[C@H](OC(=O)CC(C)(C)C(=O)O)C(C)(C)[C@@H]5CC[C@@]4(C)[C@]3(C)CC[C@@]2(C(=O)C(=O)NC2(c3ccc(Cl)cc3)CC2)CC1=O
inhibition [5]: Active
IC50 [6]: > 60 nM
IC50 [3]: 8 nM
IC50 [7]: 5 nM
IC50 [8]: > 60 nM
IC50 [9]: > 60 nM
IC50 [1]: 17 nM
IC50 [2]: 25 nM
IC50 [4]: 23 nM
IC50 [10]: 51 nM
Ratio [11]: 9.7
CC50 [12]: > 10000 nM
IC50 [13]: > 60 nM
IC50 [14]: > 60 nM
IC50 [15]: 14 nM

SMILES: C=C(C)[C@@H]1CC[C@]2(C(=O)O)CC[C@]3(C)[C@H](CC[C@@H]4[C@@]5(C)CC[C@H](OC(=O)CC(C)(C)C(=O)O)C(C)(C)[C@@H]5CC[C@]43C)[C@@H]12 [BEVIRIMAT]
inhibition [16]: Active
IC50 [3]: 252 nM
IC50 [7]: > 10000 nM
IC50 [1]: 270 nM
IC50 [2]: 6510 nM
IC50 [4]: 383 nM
IC50 [10]: > 10000 nM
Ratio [11]: 52
IC50 [15]: > 4000 nM

SMILES: CC(C)C1=C2[C@H]3CC[C@@H]4[C@@]5(C)CC[C@H](OC(=O)CC(C)(C)C(=O)O)C(C)(C)[C@@H]5CC[C@@]4(C)[C@]3(C)CC[C@@]2(C(=O)C(=O)NCc2c(Cl)cccc2Cl)CC1=O
IC50 [1]: 85 nM
IC50 [2]: 1070 nM

SMILES: CC(C)C1=C2[C@H]3CC[C@@H]4[C@@]5(C)CC[C@H](OC(=O)CC(C)(C)C(=O)O)C(C)(C)[C@@H]5CC[C@@]4(C)[C@]3(C)CC[C@@]2(C(=O)C(=O)NC(C)(C)c2ccccc2)CC1=O
IC50 [1]: 18 nM
IC50 [2]: 19 nM

SMILES: CC(C)C1=C2[C@H]3CC[C@@H]4[C@@]5(C)CC[C@H](OC(=O)CC(C)(C)C(=O)O)C(C)(C)[C@@H]5CC[C@@]4(C)[C@]3(C)CC[C@@]2(C(=O)C(=O)NCc2cccs2)CC1=O
IC50 [1]: 21 nM
IC50 [2]: 1620 nM

SMILES: CC(C)C1=C2[C@H]3CC[C@@H]4[C@@]5(C)CC[C@H](OC(=O)CC(C)(C)C(=O)O)C(C)(C)[C@@H]5CC[C@@]4(C)[C@]3(C)CC[C@@]2(C(=O)C(=O)N2CCC2)CC1=O
IC50 [1]: 5600 nM
IC50 [2]: > 10000 nM

SMILES: Cc1ccc(NC(=O)C(=O)[C@@]23CC[C@]4(C)[C@H](CC[C@@H]5[C@@]6(C)CC[C@H](OC(=O)CC(C)(C)C(=O)O)C(C)(C)[C@@H]6CC[C@]54C)C2=C(C(C)C)C(=O)C3)cc1
IC50 [1]: 251 nM
IC50 [2]: 664 nM

SMILES: CC(C)C1=C2[C@H]3CC[C@@H]4[C@@]5(C)CC[C@H](OC(=O)CC(C)(C)C(=O)O)C(C)(C)[C@@H]5CC[C@@]4(C)[C@]3(C)CC[C@@]2(C(=O)C(=O)N[C@@H](C)c2ccc(Cl)cc2)CC1=O
IC50 [3]: 19 nM
IC50 [1]: 39 nM
IC50 [2]: 474 nM
IC50 [4]: 60 nM

SMILES: CC[C@@H](NC(=O)C(=O)[C@@]12CC[C@]3(C)[C@H](CC[C@@H]4[C@@]5(C)CC[C@H](OC(=O)CC(C)(C)C(=O)O)C(C)(C)[C@@H]5CC[C@]43C)C1=C(C(C)C)C(=O)C2)c1ccc(Cl)cc1
IC50 [3]: 12 nM
IC50 [1]: 28 nM
IC50 [2]: 64 nM
IC50 [4]: 74 nM

SMILES: CC(C)C1=C2[C@H]3CC[C@@H]4[C@@]5(C)CC[C@H](OC(=O)CC(C)(C)C(=O)O)C(C)(C)[C@@H]5CC[C@@]4(C)[C@]3(C)CC[C@@]2(C(=O)C(=O)NCc2ccc(C(F)(F)F)cc2)CC1=O
IC50 [1]: 135 nM
IC50 [2]: 1320 nM

SMILES: CC(C)C1=C2[C@H]3CC[C@@H]4[C@@]5(C)CC[C@H](OC(=O)CC(C)(C)C(=O)O)C(C)(C)[C@@H]5CC[C@@]4(C)[C@]3(C)CC[C@@]2(C(=O)C(=O)NCc2ccc(Cl)cc2)CC1=O
IC50 [1]: 12 nM
IC50 [2]: 87 nM

SMILES: CC(C)C1=C2[C@H]3CC[C@@H]4[C@@]5(C)CC[C@H](OC(=O)CC(C)(C)C(=O)O)C(C)(C)[C@@H]5CC[C@@]4(C)[C@]3(C)CC[C@@]2(C(=O)C(=O)NCc2ccc(F)cc2)CC1=O
IC50 [1]: 16 nM
IC50 [2]: 202 nM

SMILES: CC(C)C1=C2[C@H]3CC[C@@H]4[C@@]5(C)CC[C@H](OC(=O)CC(C)(C)C(=O)O)C(C)(C)[C@@H]5CC[C@@]4(C)[C@]3(C)CC[C@@]2(C(=O)C(=O)NC2CCCCC2)CC1=O
IC50 [1]: 28 nM
IC50 [2]: 329 nM

IC50 [1]: > 10000 nM
SMILES: CC(C)C1=C2[C@H]3CC[C@@H]4[C@@]5(C)CC[C@H](OC(=O)CC(C)(C)C(=O)O)C(C)(C)[C@@H]5CC[C@@]4(C)[C@]3(C)CC[C@@]2(C(=O)C(=O)O)CC1=O

SMILES: CNC(=O)C(=O)[C@@]12CC[C@]3(C)[C@H](CC[C@@H]4[C@@]5(C)CC[C@H](OC(=O)CC(C)(C)C(=O)O)C(C)(C)[C@@H]5CC[C@]43C)C1=C(C(C)C)C(=O)C2
IC50 [1]: 1320 nM
IC50 [2]: 6670 nM
